# Tests used:
# Assay type in all cases: in vivo
# [1] = system: VIOTR: wild violet (Viola tricolor); test: Post-emergent herbicidal test, wild violet; conditions: post-emergence, 336 h, 14 days after application, read-out: Visual Growth Reduction (%) 14 Days After Application VIOTR; for pest or weed control at 17.5 g/ha: 17.5 g ai/ha; for pest or weed control at 35 g/ha: 35 g ai/ha; for pest or weed control at 70 g/ha: 70 g ai/ha; for pest or weed control at 140 g/ha: 140 g ai/ha
# Method in brief: (§1)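 Scores reflect visual injury (0–100%) at 14 d post-spray on young plants treated at the 1st/2nd true leaf stage. Greenhouse held at about 23-29° C day and 22-28° C night; spray volume 187 L/ha, with solvent-blank controls.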
# [2] = system: ECHCG: barnyardgrass (Echinochloa crus-galli); test: Post-emergent herbicidal test, barnyardgrass; conditions: post-emergence, 336 h, 14 days after application, read-out: Visual Growth Reduction (%) 14 Days After Application ECHCG; for pest or weed control at 17.5 g/ha: 17.5 g ai/ha; for pest or weed control at 35 g/ha: 35 g ai/ha; for pest or weed control at 70 g/ha: 70 g ai/ha; for pest or weed control at 140 g/ha: 140 g ai/ha
# Method in brief: as §1
# [3] = system: SETFA: giant foxtail (Setaria faberi); test: Post-emergent herbicidal test, giant foxtail; conditions: post-emergence, 336 h, 14 days after application, read-out: Visual Growth Reduction (%) 14 Days After Application SETFA; for pest or weed control at 17.5 g/ha: 17.5 g ai/ha; for pest or weed control at 35 g/ha: 35 g ai/ha; for pest or weed control at 70 g/ha: 70 g ai/ha; for pest or weed control at 140 g/ha: 140 g ai/ha
# Method in brief: as §1
# [4] = system: BRSNN: oilseed rape, canola (Brassica napus); test: Post-emergent herbicidal test, oilseed rape; conditions: post-emergence, 336 h, 14 days after application, read-out: Visual Growth Reduction (%) 14 Days After Application BRSNN; for pest or weed control at 17.5 g/ha: 17.5 g ai/ha; for pest or weed control at 35 g/ha: 35 g ai/ha; for pest or weed control at 70 g/ha: 70 g ai/ha; for pest or weed control at 140 g/ha: 140 g ai/ha
# Method in brief: as §1
# [5] = system: SORVU: shattercane (Sorghum bicolor); test: Post-emergent herbicidal test, shattercane; conditions: post-emergence, 336 h, 14 days after application, read-out: Visual Growth Reduction (%) 14 Days After Application SORVU; for pest or weed control at 17.5 g/ha: 17.5 g ai/ha; for pest or weed control at 35 g/ha: 35 g ai/ha; for pest or weed control at 70 g/ha: 70 g ai/ha; for pest or weed control at 140 g/ha: 140 g ai/ha
# Method in brief: as §1
# [6] = system: DIGSA: large crabgrass (Digitaria sanguinalis); test: Post-emergent herbicidal test, large crabgrass; conditions: post-emergence, 336 h, 14 days after application, read-out: Visual Growth Reduction (%) 14 Days After Application DIGSA; for pest or weed control at 17.5 g/ha: 17.5 g ai/ha; for pest or weed control at 35 g/ha: 35 g ai/ha; for pest or weed control at 70 g/ha: 70 g ai/ha; for pest or weed control at 140 g/ha: 140 g ai/ha
# Method in brief: as §1
# [7] = system: IPOHE: ivyleaf morningglory (Ipomoea hederacea); test: Post-emergent herbicidal test, ivyleaf morningglory; conditions: post-emergence, 336 h, 14 days after application, read-out: Visual Growth Reduction (%) 14 Days After Application IPOHE; for pest or weed control at 17.5 g/ha: 17.5 g ai/ha; for pest or weed control at 35 g/ha: 35 g ai/ha; for pest or weed control at 70 g/ha: 70 g ai/ha; for pest or weed control at 140 g/ha: 140 g ai/ha
# Method in brief: as §1
# [8] = system: CIRAR: Canada thistle (Cirsium arvense); test: Post-emergent herbicidal test, Canada thistle; conditions: post-emergence, 336 h, 14 days after application, read-out: Visual Growth Reduction (%) 14 Days After Application CIRAR; for pest or weed control at 17.5 g/ha: 17.5 g ai/ha; for pest or weed control at 35 g/ha: 35 g ai/ha; for pest or weed control at 70 g/ha: 70 g ai/ha; for pest or weed control at 140 g/ha: 140 g ai/ha
# Method in brief: as §1
# [9] = system: EPHHL: wild poinsettia (Euphorbia heterophylla); test: Post-emergent herbicidal test, wild poinsettia; conditions: post-emergence, 336 h, 14 days after application, read-out: Visual Growth Reduction (%) 14 Days After Application EPHHL; for pest or weed control at 17.5 g/ha: 17.5 g ai/ha; for pest or weed control at 35 g/ha: 35 g ai/ha; for pest or weed control at 70 g/ha: 70 g ai/ha; for pest or weed control at 140 g/ha: 140 g ai/ha
# Method in brief: as §1
# [10] = system: ABUTH: velvetleaf (Abutilon theophrasti); test: Post-emergent herbicidal test, velvetleaf; conditions: post-emergence, 336 h, 14 days after application, read-out: Visual Growth Reduction (%) 14 Days After Application ABUTH; for pest or weed control at 17.5 g/ha: 17.5 g ai/ha; for pest or weed control at 35 g/ha: 35 g ai/ha; for pest or weed control at 70 g/ha: 70 g ai/ha; for pest or weed control at 140 g/ha: 140 g ai/ha
# Method in brief: as §1
# [11] = system: CYPES: yellow nutsedge (Cyperus esculentus); test: Post-emergent herbicidal test, yellow nutsedge; conditions: post-emergence, 336 h, 14 days after application, read-out: Visual Growth Reduction (%) 14 Days After Application CYPES; for pest or weed control at 17.5 g/ha: 17.5 g ai/ha; for pest or weed control at 35 g/ha: 35 g ai/ha; for pest or weed control at 70 g/ha: 70 g ai/ha; for pest or weed control at 140 g/ha: 140 g ai/ha
# Method in brief: as §1
compound,measurement,setting,value
COC(=O)c1nc(-c2ccc(Cl)c3c2OC(F)(F)O3)c(Cl)c(N)c1Cl [Compound 13],pest or weed control at 17.5 g/ha,[1],0%
same,pest or weed control at 35 g/ha,[1],0%
same,pest or weed control at 70 g/ha,[1],0%
same,pest or weed control at 140 g/ha,[1],0%
same,pest or weed control at 17.5 g/ha,[2],0%
same,pest or weed control at 35 g/ha,[2],0%
same,pest or weed control at 70 g/ha,[2],0%
same,pest or weed control at 140 g/ha,[2],0%
same,pest or weed control at 17.5 g/ha,[3],0%
same,pest or weed control at 35 g/ha,[3],0%
same,pest or weed control at 70 g/ha,[3],0%
same,pest or weed control at 140 g/ha,[3],0%
same,pest or weed control at 17.5 g/ha,[4],40%
same,pest or weed control at 35 g/ha,[4],60%
same,pest or weed control at 70 g/ha,[4],70%
same,pest or weed control at 140 g/ha,[4],80%
same,pest or weed control at 17.5 g/ha,[5],0%
same,pest or weed control at 35 g/ha,[5],0%
same,pest or weed control at 70 g/ha,[5],0%
same,pest or weed control at 140 g/ha,[5],0%
same,pest or weed control at 17.5 g/ha,[6],0%
same,pest or weed control at 35 g/ha,[6],0%
same,pest or weed control at 70 g/ha,[6],0%
same,pest or weed control at 140 g/ha,[6],0%
same,pest or weed control at 17.5 g/ha,[7],0%
same,pest or weed control at 35 g/ha,[7],10%
same,pest or weed control at 70 g/ha,[7],20%
same,pest or weed control at 140 g/ha,[7],30%
same,pest or weed control at 17.5 g/ha,[8],50%
same,pest or weed control at 35 g/ha,[8],60%
same,pest or weed control at 70 g/ha,[8],80%
same,pest or weed control at 140 g/ha,[8],85%
same,pest or weed control at 17.5 g/ha,[9],0%
same,pest or weed control at 35 g/ha,[9],0%
same,pest or weed control at 70 g/ha,[9],0%
same,pest or weed control at 140 g/ha,[9],0%
same,pest or weed control at 17.5 g/ha,[10],30%
same,pest or weed control at 35 g/ha,[10],50%
same,pest or weed control at 70 g/ha,[10],75%
same,pest or weed control at 140 g/ha,[10],80%
same,pest or weed control at 17.5 g/ha,[11],0%
same,pest or weed control at 35 g/ha,[11],0%
same,pest or weed control at 70 g/ha,[11],0%
same,pest or weed control at 140 g/ha,[11],0%
C#CCOC(=O)c1nc(-c2ccc(Cl)c3c2OCO3)c(F)c(N)c1Cl [Compound 1C],pest or weed control at 17.5 g/ha,[1],65%
same,pest or weed control at 35 g/ha,[1],65%
same,pest or weed control at 70 g/ha,[1],60%
same,pest or weed control at 140 g/ha,[1],65%
same,pest or weed control at 17.5 g/ha,[2],0%
same,pest or weed control at 35 g/ha,[2],0%
same,pest or weed control at 70 g/ha,[2],0%
same,pest or weed control at 140 g/ha,[2],0%
same,pest or weed control at 17.5 g/ha,[3],0%
same,pest or weed control at 35 g/ha,[3],0%
same,pest or weed control at 70 g/ha,[3],50%
same,pest or weed control at 140 g/ha,[3],60%
same,pest or weed control at 17.5 g/ha,[4],95%
same,pest or weed control at 35 g/ha,[4],97%
same,pest or weed control at 70 g/ha,[4],100%
same,pest or weed control at 140 g/ha,[4],100%
same,pest or weed control at 17.5 g/ha,[5],10%
same,pest or weed control at 35 g/ha,[5],50%
same,pest or weed control at 70 g/ha,[5],70%
same,pest or weed control at 140 g/ha,[5],70%
same,pest or weed control at 17.5 g/ha,[6],0%
same,pest or weed control at 35 g/ha,[6],0%
same,pest or weed control at 70 g/ha,[6],0%
same,pest or weed control at 140 g/ha,[6],60%
same,pest or weed control at 17.5 g/ha,[7],0%
same,pest or weed control at 35 g/ha,[7],0%
same,pest or weed control at 70 g/ha,[7],0%
same,pest or weed control at 140 g/ha,[7],10%
same,pest or weed control at 17.5 g/ha,[8],70%
same,pest or weed control at 35 g/ha,[8],85%
same,pest or weed control at 70 g/ha,[8],90%
same,pest or weed control at 140 g/ha,[8],90%
same,pest or weed control at 17.5 g/ha,[9],10%
same,pest or weed control at 35 g/ha,[9],10%
same,pest or weed control at 70 g/ha,[9],10%
same,pest or weed control at 140 g/ha,[9],25%
same,pest or weed control at 17.5 g/ha,[10],100%
same,pest or weed control at 35 g/ha,[10],100%
same,pest or weed control at 70 g/ha,[10],100%
same,pest or weed control at 140 g/ha,[10],100%
same,pest or weed control at 17.5 g/ha,[11],30%
same,pest or weed control at 35 g/ha,[11],80%
same,pest or weed control at 70 g/ha,[11],85%
same,pest or weed control at 140 g/ha,[11],80%

# Source: patent publication US11718604B2, “4-amino-6-(1,3-benzodioxole)picolinates and their use as herbicides” (Dow AgroSciences LLC, priority 2018, dated 2023)
